Reference: the kinase profiling compilation of Christmann-Franck et al. (2016)

Key:
Test in all cases: radiometric filter-binding kinase assay, Kinase HotSpot
Conditions in all cases: compound 0.5 µM; ATP 10 µM
PHKG1 (human) = PHKG1 (human) (UniProt Q16816)
CAMK2B (human) = CAMK2B (human) (UniProt Q13554)
CDK1 CCNB1 (human) = CDK1 CCNB1 (human) (UniProt P06493+P14635)
CDK4 CCND1 (human) = CDK4 CCND1 (human) (UniProt P24385+P11802)
CAMK1D (human) = CAMK1D (human) (UniProt Q8IU85)
IKBKB (human) = IKBKB (human) (UniProt O14920)
CAMK1G (human) = CAMK1G (human) (UniProt Q96NX5)
SLK (human) = SLK (human) (UniProt Q9H2G2)
Chain of SLK (human) (Q9H2G2 whole entry, looked up): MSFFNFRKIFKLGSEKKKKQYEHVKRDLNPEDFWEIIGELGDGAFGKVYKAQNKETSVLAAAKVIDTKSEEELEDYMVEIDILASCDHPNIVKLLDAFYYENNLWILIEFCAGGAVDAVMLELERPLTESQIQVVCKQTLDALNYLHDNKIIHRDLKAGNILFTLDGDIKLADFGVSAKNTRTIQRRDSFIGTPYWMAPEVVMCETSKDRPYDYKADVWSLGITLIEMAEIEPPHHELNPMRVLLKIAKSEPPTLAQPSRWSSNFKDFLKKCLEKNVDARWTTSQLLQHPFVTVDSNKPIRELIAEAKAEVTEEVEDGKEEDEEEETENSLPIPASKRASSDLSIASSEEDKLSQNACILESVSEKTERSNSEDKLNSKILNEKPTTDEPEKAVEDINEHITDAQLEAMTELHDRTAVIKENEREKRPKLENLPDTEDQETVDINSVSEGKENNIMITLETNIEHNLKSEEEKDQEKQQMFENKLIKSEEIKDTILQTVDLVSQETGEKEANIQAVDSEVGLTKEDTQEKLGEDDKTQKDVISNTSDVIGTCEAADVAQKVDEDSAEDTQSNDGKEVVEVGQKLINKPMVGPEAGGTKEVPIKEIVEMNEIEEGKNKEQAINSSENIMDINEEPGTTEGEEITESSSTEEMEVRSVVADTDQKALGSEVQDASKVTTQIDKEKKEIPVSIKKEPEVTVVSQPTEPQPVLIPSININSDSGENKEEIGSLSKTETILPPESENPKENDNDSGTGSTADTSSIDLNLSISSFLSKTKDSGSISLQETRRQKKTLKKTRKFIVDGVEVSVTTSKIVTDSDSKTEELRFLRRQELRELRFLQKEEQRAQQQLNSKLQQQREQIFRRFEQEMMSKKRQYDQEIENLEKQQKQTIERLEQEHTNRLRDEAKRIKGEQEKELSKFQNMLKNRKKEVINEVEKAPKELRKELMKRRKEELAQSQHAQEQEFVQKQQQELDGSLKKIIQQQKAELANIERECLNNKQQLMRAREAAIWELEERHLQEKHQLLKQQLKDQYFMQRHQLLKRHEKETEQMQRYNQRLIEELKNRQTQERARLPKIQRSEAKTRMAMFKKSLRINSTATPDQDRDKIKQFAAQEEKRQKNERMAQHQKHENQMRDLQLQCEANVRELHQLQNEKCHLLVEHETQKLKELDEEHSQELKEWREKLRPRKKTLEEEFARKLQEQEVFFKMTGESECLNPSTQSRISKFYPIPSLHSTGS

CHEK1 (human) = CHEK1 (human) (UniProt O14757)
CSNK1G1 (human) = CSNK1G1 (human) (UniProt Q9HCP0)
MAP3K5 (human) = MAP3K5 (human) (UniProt Q99683)
CSNK2A2 (human) = CSNK2A2 (human) (UniProt P19784)
PDPK1 (human) = PDPK1 (human) (UniProt O15530)
CDK3 CCNE1 (human) = CDK3 CCNE1 (human) (UniProt Q00526+P24864)
GRK4 (human) = GRK4 (human) (UniProt P32298)
CLK2 (human) = CLK2 (human) (UniProt P49760)
EGFR (human) = EGFR (human) (UniProt P00533)
FES (human) = FES (human) (UniProt P07332)
Chain of FES (human) (P07332 whole entry, looked up): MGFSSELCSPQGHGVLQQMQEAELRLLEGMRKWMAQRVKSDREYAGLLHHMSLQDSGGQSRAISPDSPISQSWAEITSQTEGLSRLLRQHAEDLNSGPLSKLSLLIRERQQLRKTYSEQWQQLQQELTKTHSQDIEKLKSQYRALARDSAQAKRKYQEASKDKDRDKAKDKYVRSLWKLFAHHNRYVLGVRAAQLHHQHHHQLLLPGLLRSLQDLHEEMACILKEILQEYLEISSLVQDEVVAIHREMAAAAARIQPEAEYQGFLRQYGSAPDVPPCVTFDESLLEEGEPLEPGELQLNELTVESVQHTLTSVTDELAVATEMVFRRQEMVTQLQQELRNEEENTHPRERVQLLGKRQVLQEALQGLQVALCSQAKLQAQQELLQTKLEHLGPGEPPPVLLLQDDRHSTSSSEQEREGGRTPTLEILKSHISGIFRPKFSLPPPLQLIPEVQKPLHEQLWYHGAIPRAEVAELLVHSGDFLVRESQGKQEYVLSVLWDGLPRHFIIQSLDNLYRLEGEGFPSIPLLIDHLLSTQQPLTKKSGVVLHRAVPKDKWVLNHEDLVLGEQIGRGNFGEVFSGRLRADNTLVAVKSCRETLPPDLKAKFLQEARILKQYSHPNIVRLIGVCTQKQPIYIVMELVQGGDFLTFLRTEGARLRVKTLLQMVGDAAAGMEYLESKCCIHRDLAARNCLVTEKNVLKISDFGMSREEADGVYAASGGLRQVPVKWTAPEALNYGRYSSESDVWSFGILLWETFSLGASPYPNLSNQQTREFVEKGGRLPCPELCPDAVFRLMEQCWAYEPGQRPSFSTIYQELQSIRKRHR

NTRK3 (human) = NTRK3 (human) (UniProt Q16288)
CSNK1G3 (human) = CSNK1G3 (human) (UniProt Q9Y6M4)
AKT1 (human) = AKT1 (human) (UniProt P31749)
ROCK2 (human) = ROCK2 (human) (UniProt O75116)
EPHA5 (human) = EPHA5 (human) (UniProt P54756)
CAMK2D (human) = CAMK2D (human) (UniProt Q13557)
MAP2K1 (human) = MAP2K1 (human) (UniProt Q02750)
IKBKE (human) = IKBKE (human) (UniProt Q14164)
MELK (human) = MELK (human) (UniProt Q14680)
TAOK3 (human) = TAOK3 (human) (UniProt Q9H2K8)
EPHB3 (human) = EPHB3 (human) (UniProt P54753)
FGFR4 (human) = FGFR4 (human) (UniProt P22455)
EPHA8 (human) = EPHA8 (human) (UniProt P29322)
MARK1 (human) = MARK1 (human) (UniProt Q9P0L2)
SRMS (human) = SRMS (human) (UniProt Q9H3Y6)
TYRO3 (human) = TYRO3 (human) (UniProt Q06418)
STK3 (human) = STK3 (human) (UniProt Q13188)
MAP4K4 (human) = MAP4K4 (human) (UniProt O95819)
Chain of MAP4K4 (human) (O95819 whole entry, looked up): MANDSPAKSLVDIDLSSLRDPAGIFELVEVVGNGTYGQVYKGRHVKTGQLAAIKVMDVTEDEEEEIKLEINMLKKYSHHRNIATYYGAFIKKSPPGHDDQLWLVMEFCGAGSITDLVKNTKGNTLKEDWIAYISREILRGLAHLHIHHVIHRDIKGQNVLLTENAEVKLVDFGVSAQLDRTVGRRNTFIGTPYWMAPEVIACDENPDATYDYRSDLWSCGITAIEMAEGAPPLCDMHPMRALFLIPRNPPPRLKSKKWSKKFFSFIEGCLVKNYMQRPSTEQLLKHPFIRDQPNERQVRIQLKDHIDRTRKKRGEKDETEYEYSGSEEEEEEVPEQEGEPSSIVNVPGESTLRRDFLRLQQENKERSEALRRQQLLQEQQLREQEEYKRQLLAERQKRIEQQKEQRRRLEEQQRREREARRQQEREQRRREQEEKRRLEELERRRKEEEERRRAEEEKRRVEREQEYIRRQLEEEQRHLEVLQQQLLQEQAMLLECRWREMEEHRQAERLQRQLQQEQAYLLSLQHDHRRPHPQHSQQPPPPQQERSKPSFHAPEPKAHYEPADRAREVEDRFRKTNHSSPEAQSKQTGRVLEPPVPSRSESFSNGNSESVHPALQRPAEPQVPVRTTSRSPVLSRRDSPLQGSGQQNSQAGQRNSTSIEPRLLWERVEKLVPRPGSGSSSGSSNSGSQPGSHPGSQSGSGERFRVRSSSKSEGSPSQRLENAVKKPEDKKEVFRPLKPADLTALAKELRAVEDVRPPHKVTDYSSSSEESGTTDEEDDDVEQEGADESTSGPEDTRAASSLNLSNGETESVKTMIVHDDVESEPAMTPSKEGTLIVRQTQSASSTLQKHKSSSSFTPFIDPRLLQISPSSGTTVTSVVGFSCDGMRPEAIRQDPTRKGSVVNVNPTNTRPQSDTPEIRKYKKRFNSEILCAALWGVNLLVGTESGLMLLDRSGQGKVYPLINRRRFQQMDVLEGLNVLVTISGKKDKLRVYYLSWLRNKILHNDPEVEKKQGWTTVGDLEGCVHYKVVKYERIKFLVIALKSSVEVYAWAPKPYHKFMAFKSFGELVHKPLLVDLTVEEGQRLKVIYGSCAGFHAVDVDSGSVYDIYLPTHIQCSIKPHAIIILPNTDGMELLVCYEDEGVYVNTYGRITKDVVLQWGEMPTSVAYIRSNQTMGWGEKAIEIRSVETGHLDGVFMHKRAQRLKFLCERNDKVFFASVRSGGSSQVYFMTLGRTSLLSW

HIPK3 (human) = HIPK3 (human) (UniProt Q9H422)
Chain of HIPK3 (human) (Q9H422 whole entry, looked up): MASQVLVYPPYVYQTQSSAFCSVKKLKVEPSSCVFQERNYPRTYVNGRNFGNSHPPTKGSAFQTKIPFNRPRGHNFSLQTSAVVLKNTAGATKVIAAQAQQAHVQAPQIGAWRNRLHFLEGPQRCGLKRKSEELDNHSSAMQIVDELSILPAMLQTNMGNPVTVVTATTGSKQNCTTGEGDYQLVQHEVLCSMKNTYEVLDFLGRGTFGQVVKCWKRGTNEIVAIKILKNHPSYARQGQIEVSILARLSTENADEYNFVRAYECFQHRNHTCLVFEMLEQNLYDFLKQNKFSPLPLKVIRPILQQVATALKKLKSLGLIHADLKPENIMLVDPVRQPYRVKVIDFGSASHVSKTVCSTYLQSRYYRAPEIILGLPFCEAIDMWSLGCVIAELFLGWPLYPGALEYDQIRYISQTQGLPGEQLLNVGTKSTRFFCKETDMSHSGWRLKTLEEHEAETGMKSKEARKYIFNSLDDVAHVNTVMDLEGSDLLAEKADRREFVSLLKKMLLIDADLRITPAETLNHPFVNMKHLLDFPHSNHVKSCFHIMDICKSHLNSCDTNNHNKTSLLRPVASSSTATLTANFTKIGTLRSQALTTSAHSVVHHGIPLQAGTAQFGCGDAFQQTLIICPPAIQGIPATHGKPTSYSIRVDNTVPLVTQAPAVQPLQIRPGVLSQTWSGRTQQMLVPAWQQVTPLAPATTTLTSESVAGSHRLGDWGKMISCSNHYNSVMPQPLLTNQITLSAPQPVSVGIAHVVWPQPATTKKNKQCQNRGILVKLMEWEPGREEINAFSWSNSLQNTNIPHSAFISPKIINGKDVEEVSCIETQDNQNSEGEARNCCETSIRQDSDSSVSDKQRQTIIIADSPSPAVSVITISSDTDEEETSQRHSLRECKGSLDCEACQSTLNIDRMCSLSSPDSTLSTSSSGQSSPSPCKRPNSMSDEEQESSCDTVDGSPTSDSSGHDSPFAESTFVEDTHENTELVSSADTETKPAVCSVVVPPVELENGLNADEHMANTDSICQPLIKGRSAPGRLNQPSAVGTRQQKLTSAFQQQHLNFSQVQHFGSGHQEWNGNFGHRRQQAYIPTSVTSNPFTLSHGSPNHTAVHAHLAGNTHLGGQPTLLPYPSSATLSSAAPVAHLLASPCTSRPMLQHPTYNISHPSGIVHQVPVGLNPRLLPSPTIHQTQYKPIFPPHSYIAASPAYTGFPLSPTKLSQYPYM

ULK2 (human) = ULK2 (human) (UniProt Q8IYT8)
MAPK13 (human) = MAPK13 (human) (UniProt O15264)
MAP4K5 (human) = MAP4K5 (human) (UniProt Q9Y4K4)
MAPK3 (human) = MAPK3 (human) (UniProt P27361)
FGFR1 (human) = FGFR1 (human) (UniProt P11362)

Chain of CAMK1D (human) (Q8IU85 whole entry, looked up): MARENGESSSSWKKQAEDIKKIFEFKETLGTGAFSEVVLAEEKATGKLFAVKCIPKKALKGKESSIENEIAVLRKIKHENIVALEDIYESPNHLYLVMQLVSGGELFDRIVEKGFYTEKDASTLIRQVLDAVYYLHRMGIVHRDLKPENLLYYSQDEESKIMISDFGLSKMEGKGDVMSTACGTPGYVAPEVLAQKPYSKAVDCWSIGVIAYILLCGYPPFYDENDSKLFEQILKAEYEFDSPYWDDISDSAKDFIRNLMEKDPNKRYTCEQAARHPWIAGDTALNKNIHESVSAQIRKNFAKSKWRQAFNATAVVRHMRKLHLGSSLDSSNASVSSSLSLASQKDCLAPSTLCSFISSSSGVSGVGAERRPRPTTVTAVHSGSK

**Q.** Which results are given for `Oc1ccc(Nc2nc(-c3ccc(Cl)cc3)cs2)cc1`?
**A.** residual activity (PHKG1 (human)): 96.5%; residual activity (CAMK2B (human)): 85.8%; residual activity (CDK1 CCNB1 (human)): 109%; residual activity (CDK4 CCND1 (human)): 108%; residual activity (CAMK1D (human)): 103%; residual activity (IKBKB (human)): 104%; residual activity (CAMK1G (human)): 106%; residual activity (SLK (human)): 110%; residual activity (CHEK1 (human)): 99.4%; residual activity (CSNK1G1 (human)): 94.5%; residual activity (MAP3K5 (human)): 108%; residual activity (CSNK2A2 (human)): 96.9%; residual activity (PDPK1 (human)): 101%; residual activity (CDK3 CCNE1 (human)): 99%; residual activity (GRK4 (human)): 90.5%; residual activity (CLK2 (human)): 102%; residual activity (EGFR (human)): 95.3%; residual activity (FES (human)): 103%; residual activity (NTRK3 (human)): 102%; residual activity (CSNK1G3 (human)): 103%; residual activity (AKT1 (human)): 106%; residual activity (ROCK2 (human)): 99.4%; residual activity (EPHA5 (human)): 92.6%; residual activity (CAMK2D (human)): 98.8%; residual activity (MAP2K1 (human)): 90.7%; residual activity (IKBKE (human)): 95.9%; residual activity (MELK (human)): 100%; residual activity (TAOK3 (human)): 101%; residual activity (EPHB3 (human)): 103%; residual activity (FGFR4 (human)): 71.6%; residual activity (EPHA8 (human)): 93.4%; residual activity (MARK1 (human)): 93.7%; residual activity (SRMS (human)): 106%; residual activity (TYRO3 (human)): 102%; residual activity (STK3 (human)): 114%; residual activity (MAP4K4 (human)): 88.9%; residual activity (HIPK3 (human)): 109%; residual activity (ULK2 (human)): 101%; residual activity (MAPK13 (human)): 107%; residual activity (MAP4K5 (human)): 110%; residual activity (MAPK3 (human)): 103%; residual activity (FGFR1 (human)): 82.5%

**Q.** With `O=C(O)/C=C/c1cc(Br)c(Br)c(Br)c1Br` as the compound, how does the residual activity (PHKG1 (human)) read?
**A.** 87.6%

**Q.** What about the residual activity (CAMK2B (human)) of the same compound?
**A.** 56.1%

**Q.** What about the residual activity (CDK1 CCNB1 (human)) of the same compound?
**A.** 62.7%

**Q.** What about the residual activity (CDK4 CCND1 (human)) of the same compound?
**A.** 89.3%

**Q.** And the residual activity (CAMK1D (human))?
**A.** 98.1%

**Q.** What about the residual activity (IKBKB (human)) of the same compound?
**A.** 95.7%

**Q.** And the residual activity (CAMK1G (human))?
**A.** 94.1%

**Q.** What about the residual activity (SLK (human)) of the same compound?
**A.** 96%

**Q.** And the residual activity (CHEK1 (human))?
**A.** 135%

**Q.** And the residual activity (CSNK1G1 (human))?
**A.** 97.2%

**Q.** And the residual activity (MAP3K5 (human))?
**A.** 94%

**Q.** And the residual activity (CSNK2A2 (human))?
**A.** 17%

**Q.** What about the residual activity (PDPK1 (human)) of the same compound?
**A.** 96.2%

**Q.** And the residual activity (CDK3 CCNE1 (human))?
**A.** 98.3%

**Q.** And the residual activity (GRK4 (human))?
**A.** 101%

**Q.** And the residual activity (CLK2 (human))?
**A.** 85%

**Q.** And the residual activity (EGFR (human))?
**A.** 98.4%

**Q.** What about the residual activity (FES (human)) of the same compound?
**A.** 88.8%

**Q.** And the residual activity (NTRK3 (human))?
**A.** 90.6%

**Q.** What about the residual activity (CSNK1G3 (human)) of the same compound?
**A.** 92.1%

**Q.** What about the residual activity (AKT1 (human)) of the same compound?
**A.** 97.4%

**Q.** And the residual activity (ROCK2 (human))?
**A.** 94.2%

**Q.** What about the residual activity (EPHA5 (human)) of the same compound?
**A.** 88.7%

**Q.** And the residual activity (CAMK2D (human))?
**A.** 77.7%

**Q.** And the residual activity (MAP2K1 (human))?
**A.** 95.8%

**Q.** And the residual activity (IKBKE (human))?
**A.** 96.8%

**Q.** What about the residual activity (MELK (human)) of the same compound?
**A.** 91%

**Q.** And the residual activity (TAOK3 (human))?
**A.** 85.3%

**Q.** What about the residual activity (EPHB3 (human)) of the same compound?
**A.** 89.8%

**Q.** What about the residual activity (FGFR4 (human)) of the same compound?
**A.** 88.3%

**Q.** What about the residual activity (EPHA8 (human)) of the same compound?
**A.** 99.1%

**Q.** What about the residual activity (MARK1 (human)) of the same compound?
**A.** 93.7%

**Q.** And the residual activity (SRMS (human))?
**A.** 89.3%

**Q.** What about the residual activity (TYRO3 (human)) of the same compound?
**A.** 93.3%

**Q.** And the residual activity (STK3 (human))?
**A.** 91.4%

**Q.** What about the residual activity (MAP4K4 (human)) of the same compound?
**A.** 63.5%

**Q.** What about the residual activity (HIPK3 (human)) of the same compound?
**A.** 96.7%

**Q.** And the residual activity (ULK2 (human))?
**A.** 80.3%

**Q.** And the residual activity (MAPK13 (human))?
**A.** 98.5%

**Q.** What about the residual activity (MAP4K5 (human)) of the same compound?
**A.** 80.3%

**Q.** And the residual activity (MAPK3 (human))?
**A.** 110%

**Q.** What about the residual activity (FGFR1 (human)) of the same compound?
**A.** 95.2%
